PMC12655637, “Design, Synthesis, and Mechanistic Study of Novel Ciprofloxacin/Thiazole Chalcone Hybrids as Potential Anticancer Agents” (Pharmaceuticals, 2025)

Assays:
Assay in all cases: NCI-60 screening, one-dose (10 µM) and five-dose, SRB
[1] = tested on: KM12; assay type: cell-based, human; details: five-dose; KM12
[2] = tested on: MDA-MB-435; assay type: cell-based
[3] = tested on: BT-549; assay type: cell-based
[4] = tested on: OVCAR-5; assay type: cell-based, human; details: five-dose, OVCAR-5
[5] = tested on: ACHN; assay type: cell-based, human
[6] = tested on: HOP-92; assay type: cell-based, human
[7] = tested on: HCT-116; assay type: cell-based, human; details: five-dose, HCT-116
[8] = tested on: T-47D; assay type: cell-based, human; details: five-dose
[9] = tested on: HCC-2998; assay type: cell-based, human
[10] = tested on: OVCAR-4; assay type: cell-based, human
[11] = tested on: A498; assay type: cell-based; details: five-dose, A498
[12] = tested on: SK-OV-3; assay type: cell-based, human
[13] = tested on: SW-620; assay type: cell-based, human
[14] = tested on: SF-295; assay type: cell-based, human
[15] = tested on: HT29; assay type: cell-based, human
[16] = tested on: NCI-H23; assay type: cell-based, human
[17] = Homo sapiens, five-dose, BT-549
[18] = Homo sapiens, read-out: LC50 (the source's name)
[19] = Homo sapiens, five-dose, HOP-92
[20] = Homo sapiens, five-dose, HCC-2998
[21] = Homo sapiens, five-dose, OVCAR-4
[22] = Homo sapiens, five-dose, SK-OV-3
[23] = Homo sapiens, five-dose, SW-620
[24] = Homo sapiens, five-dose, SF-295
[25] = Homo sapiens, HT-29, five-dose, HT29
[26] = Homo sapiens, five-dose, NCI-H23

Molecule `Cc1nc(SCC(=O)N2CCN(c3cc4c(cc3F)c(=O)c(C(=O)O)cn4C3CC3)CC2)sc1C(=O)/C=C/c1cccc(F)c1` [Compound 4d, (E)-1-Cyclopropyl-6-fluoro-7-(4-(2-((5-(3-(3-fluorophenyl)acryloyl)-4-methylthiazol-2-yl)thio)acetyl)piperazin-1-yl)-4-oxo-1,4-dihydroquinoline-3-carboxylic Acid] has a TGI [1] of 97.7 µM, a GI50 ([2]; Homo sapiens, MDA-MB-435) of 3.7 µM and an IC50 ([2]; Homo sapiens, MDA-MB-435) of 6.9 µM. The activity at 10 µM ([2]; Homo sapiens, MDA-MB-435, read-out: Growth percentage, 10 μM, MDA-MB-435, Melanoma) was -3.7%, the CC50 ([2]; Homo sapiens, five-dose, MDA-MB-435, read-out: LC50 (the source's name)) was greater than 100 µM and the TGI ([2]; five-dose, MDA-MB-435) was 100.0 µM. For the same molecule, the activity at 10 µM ([3]; Homo sapiens, 10 μM, BT-549, Breast Cancer, read-out: Growth percentage) was -88.5%, the GI50 [3, 17] was 5.4 µM and the IC50 [3, 17] was 25.7 µM. For the same molecule, the CC50 ([3]; Homo sapiens, five-dose, BT-549, read-out: LC50 (the source's name)) was greater than 100 µM, the TGI ([3]; five-dose, BT-549) was 100.0 µM and the GI50 ([4]; Homo sapiens) was greater than 100 µM. It also gave an IC50 ([4]; Homo sapiens) greater than 100 µM, a CC50 [4, 18] greater than 100 µM and a TGI [4] of 100.0 µM. It also gave an activity at 10 µM ([5]; Homo sapiens, 10 μM, Renal Cancer, read-out: Growth percentage) of 94.4%, a GI50 ([5]; Homo sapiens, five-dose) greater than 100 µM and an IC50 ([5]; Homo sapiens, five-dose) greater than 100 µM. For the same molecule, the CC50 ([5]; Homo sapiens, five-dose, read-out: LC50 (the source's name)) was greater than 100 µM, the TGI ([5]; five-dose) was 100.0 µM and the activity at 10 µM ([6]; Homo sapiens, 10 μM, HOP-92, Non-Small-Cell Lung Cancer, read-out: Growth percentage) was 91.9%. It also gave a GI50 [6, 19] greater than 100 µM, an IC50 [6, 19] greater than 100 µM and an LC50 (concentration killing 50% of cells) [6, 19] greater than 100 µM. The TGI ([6]; five-dose, HOP-92) was 100.0 µM, the GI50 ([7]; Homo sapiens) was 0.21 µM and the IC50 ([7]; Homo sapiens) was 0.34 µM. For the same molecule, the TGI [7] was 100.0 µM, the GI50 ([8]; Homo sapiens, T47D) was greater than 100 µM and the IC50 ([8]; Homo sapiens, T47D) was greater than 100 µM. It also gave a CC50 ([8]; Homo sapiens, T47D, read-out: LC50 (the source's name)) greater than 100 µM, a TGI [8] of 77.6 µM and an activity at 10 µM ([9]; Homo sapiens, 10 μM, HCC-2998, Colon Cancer, read-out: Growth percentage) of -29%. It also gave a GI50 [9, 20] of 1.4 µM, an IC50 [9, 20] of 8.5 µM and a CC50 ([9]; Homo sapiens, five-dose, HCC-2998, read-out: LC50 (the source's name)) greater than 100 µM. It also gave a TGI ([9]; five-dose, HCC-2998) of 0.42 µM, an activity at 10 µM ([10]; Homo sapiens, 10 μM, OVCAR-4, Ovarian Cancer, read-out: Growth percentage) of 94.5% and a GI50 [10, 21] greater than 100 µM. The IC50 [10, 21] was greater than 100 µM, the CC50 ([10]; Homo sapiens, five-dose, OVCAR-4, read-out: LC50 (the source's name)) was greater than 100 µM and the TGI ([10]; five-dose, OVCAR-4) was 100.0 µM. For the same molecule, the GI50 ([11]; Homo sapiens) was greater than 100 µM, the IC50 ([11]; Homo sapiens) was greater than 100 µM and the CC50 [11, 18] was greater than 100 µM. It also gave a TGI [11] of 100.0 µM, an activity at 10 µM ([12]; Homo sapiens, 10 μM, SK-OV-3, Ovarian Cancer, read-out: Growth percentage) of 5% and a GI50 [12, 22] greater than 100 µM. For the same molecule, the IC50 [12, 22] was greater than 100 µM, the CC50 ([12]; Homo sapiens, five-dose, SK-OV-3, read-out: LC50 (the source's name)) was greater than 100 µM and the TGI ([12]; five-dose, SK-OV-3) was 100.0 µM. It also gave an activity at 10 µM ([13]; Homo sapiens, 10 μM, SW-620, Colon Cancer, read-out: Growth percentage) of 3.2%, a GI50 [13, 23] of 3.7 µM and an IC50 [13, 23] of 4.7 µM. It also gave a CC50 ([13]; Homo sapiens, five-dose, SW-620, read-out: LC50 (the source's name)) greater than 100 µM, a TGI ([13]; five-dose, SW-620) of 100.0 µM and an activity at 10 µM ([14]; Homo sapiens, 10 μM, SF-295, CNS Cancer, read-out: Growth percentage) of 93.1%. The GI50 [14, 24] was greater than 100 µM, the IC50 [14, 24] was greater than 100 µM and the CC50 ([14]; Homo sapiens, five-dose, SF-295, read-out: LC50 (the source's name)) was greater than 100 µM. It also gave a TGI ([14]; five-dose, SF-295) of 8.7 µM, an activity at 10 µM ([15]; Homo sapiens, HT-29, 10 μM, HT29, Colon Cancer, read-out: Growth percentage) of 3.7% and a GI50 [15, 25] greater than 100 µM. The IC50 [15, 25] was 100 µM, the CC50 ([15]; Homo sapiens, HT-29, five-dose, HT29, read-out: LC50 (the source's name)) was greater than 100 µM and the TGI ([15]; five-dose, HT29) was 1.91 µM. For the same molecule, the activity at 10 µM ([16]; Homo sapiens, 10 μM, NCI-H23, Non-Small-Cell Lung Cancer, read-out: Growth percentage) was 45.6%, the GI50 [16, 26] was greater than 100 µM and the IC50 [16, 26] was greater than 100 µM. The LC50 (50% lethal concentration) [16, 26] was greater than 100 µM and the TGI ([16]; five-dose, NCI-H23) was 100.0 µM.
